Key:
T. confusum = assay: Filter paper contact test with piperonyl butoxide (Table 7); assay type: in vivo, confused flour-beetle (T. confusum), imagos
Experimental: (§1) The stereoisomers are dissolved in a 1:2 mixture of mineral oil and acetone and filter paper discs (Whatman No. 1., diameter 9 cm) are impregnated with the corresponding dosage of the solution of the active ingredient. The acetone is allowed to evaporate and the insects are examined on filter paper discs placed into Petri-dishes. Three parallels are used for each dose and 15 animals are placed in each Petri-dish. Mortality rate is determined after 24 hours. The corrected mortality % data are calculated by means of the Abbot formula.
T. confusum (confused flour-beetle) imagos are treated according to Example 20 and percental mortality is determined after 24 hours. The dose of piperonyl butoxide (referred to furtheron as "[…]") amounts to 0.5 mg/disc The results are disclosed in Table 7.

Acanthoscelides obtectus = assay: Impregnated filter paper disc contact test, mortality (Table 1); assay type: in vivo, bean weevil (Acanthoscelides obtectus), imago
Experimental: as §1

house fly = assay: Topical LD50 on house fly (mg/kg); assay type: in vivo; conditions: Musca domestica, approximate, topically
Source text: The said selectivity index of the enantiomer-pair Ia amounts to 50/0.45=111.
In addition to the synergistic effect the composition of the present invention has a number of further advantages too and for this reason it is an outstanding product. It is very important that the compositions of the present invention are less toxical towards mammals than the hitherto known compositions of similar efficiency. […] The said selectivity index of Ia amounts to 50/0.45=111.

tribolium confusum = assay: Impregnated filter paper disc contact test, mortality (Table 1); assay type: in vivo, flour-beetle (tribolium confusum), imago
Experimental: as §1

CC1(C)[C@H](C=C(Cl)Cl)[C@H]1C(=O)O[C@H](C#N)c1cccc(Oc2ccccc2)c1 (relative stereo) [Ib]
synergizability with piperonyl butoxide (T. confusum; Ib versus Ia): can be synergized at a higher level than isomer pair Ia | mortality at 25 µg/disc (T. confusum; Tribolium confusum, 24 h, 0.025 mg/disc, PBO, where added, 0.5 mg/disc): 0% | mortality at 50 µg/disc (T. confusum; Tribolium confusum, 24 h, 0.05 mg/disc, PBO, where added, 0.5 mg/disc): 10% | mortality at 100 µg/disc (T. confusum; Tribolium confusum, 24 h, 0.1 mg/disc, PBO, where added, 0.5 mg/disc): 51% | mortality at 200 µg/disc (T. confusum; Tribolium confusum, 24 h, 0.2 mg/disc, PBO, where added, 0.5 mg/disc): 85% | mortality at 400 µg/disc (T. confusum; Tribolium confusum, 24 h, 0.4 mg/disc, PBO, where added, 0.5 mg/disc): 100% | mortality at 20 µg/disc (Acanthoscelides obtectus; Acanthoscelides obtectus, 0.02 mg/disc, 24 hours, Abbot corrected): 32% | mortality at 70 µg/disc (Acanthoscelides obtectus; Acanthoscelides obtectus, 0.07 mg/disc, 24 hours, Abbot corrected): 55% | mortality at 220 µg/disc (Acanthoscelides obtectus; Acanthoscelides obtectus, 0.22 mg/disc, 24 hours, Abbot corrected): 87% | mortality at 670 µg/disc (Acanthoscelides obtectus; Acanthoscelides obtectus, 0.67 mg/disc, 24 hours, Abbot corrected): 100% | mortality at 2000 µg/disc (Acanthoscelides obtectus; Acanthoscelides obtectus, 2.0 mg/disc, 24 hours, Abbot corrected): 100% | mortality at 6000 µg/disc (Acanthoscelides obtectus; Acanthoscelides obtectus, 6.0 mg/disc, 24 hours, Abbot corrected): 100% | comparative activity (Acanthoscelides obtectus; Ib versus Ia): more active than enantiomer-pair Ia | LD50 (house fly): ~0.64 mg/kg | comparative activity (tribolium confusum; Ib versus Ia): more active than enantiomer-pair Ia | mortality at 20 µg/disc (tribolium confusum; Tribolium confusum, 0.02 mg/disc, 24 hours, Abbot corrected): 14% | mortality at 70 µg/disc (tribolium confusum; Tribolium confusum, 0.07 mg/disc, 24 hours, Abbot corrected): 73% | mortality at 220 µg/disc (tribolium confusum; Tribolium confusum, 0.22 mg/disc, 24 hours, Abbot corrected): 100% | mortality at 670 µg/disc (tribolium confusum; Tribolium confusum, 0.67 mg/disc, 24 hours, Abbot corrected): 100% | mortality at 2000 µg/disc (tribolium confusum; Tribolium confusum, 2.0 mg/disc, 24 hours, Abbot corrected): 100% | mortality at 6000 µg/disc (tribolium confusum; Tribolium confusum, 6.0 mg/disc, 24 hours, Abbot corrected): 100%

— patent publication US5110976A, “Insecticidal composition comprising more than one active ingredient” (priority 1985, dated 1992)
